Measured values reported in patent publication US20060257843A1 (priority 2002, published 2006).
Values joined by “and” are separate entries in the source; they are usually repeats but may differ in a detail not shown here. Identical values can stand only once. “Also recorded” adds a separate entry of the source. Bridge positions count the residues as written; N and C are the ends. Square brackets hold non-standard residues; d marks the D form. Peptide text beside a SMILES is read from it. Hyp = O=C(O)[C@@H]1C[C@@H](O)CN1

Experiments:
[1] = system: primary cultures of cortex; format: cell-based, rat
[2] = system: primary cultures of cortex; format: cell-based, rat; remark: listed apart in the source
[3] = system: cardiac myocytes; format: cell-based, rat
[4] = system: primary cultures of cortical neurons; format: cell-based, rat
[5] = system: cardiac ventricular myocytes; format: cell-based, rat
[6] = system: isolated rabbit hearts
[7] = system: ventricular myocytes, cortex and trachea; format: cell-based, rat
[8] = system: primary cultures of cortex; format: cell-based, rat; remark: listed apart in the source
[9] = system: anesthetized rat; conditions: in vivo, iv
[10] = system: primary cultures of cortex
[11] = system: primary cultures of ventricular myocytes
[12] = target: Shaker H4 potassium channel (Drosophila melanogaster, UniProt P08510); conditions: cited from earlier work
[13] = system: cortical cells
[14] = system: primary cortical cultures
[15] = system: New Zealand White rabbits; conditions: rabbit, in vivo
[16] = system: canine model of AMI; conditions: dog, in vivo
[17] = target: T1, Kv1.1 (Homo sapiens, UniProt Q09470); conditions: cited from earlier work
T1 construct: host or cells: oocytes

[18] = target: Kv1.4 (Homo sapiens, UniProt P22459); conditions: cited from earlier work
[19] = target: T2, Kv1.3 (Homo sapiens, UniProt P22001); conditions: cited from earlier work
T2 construct: host or cells: oocytes

[20] = target: F425G Shaker mutation (Drosophila melanogaster, UniProt P08510, F425G); conditions: cited from earlier work
Sequence of F425G Shaker mutation (P08510 whole entry F425G): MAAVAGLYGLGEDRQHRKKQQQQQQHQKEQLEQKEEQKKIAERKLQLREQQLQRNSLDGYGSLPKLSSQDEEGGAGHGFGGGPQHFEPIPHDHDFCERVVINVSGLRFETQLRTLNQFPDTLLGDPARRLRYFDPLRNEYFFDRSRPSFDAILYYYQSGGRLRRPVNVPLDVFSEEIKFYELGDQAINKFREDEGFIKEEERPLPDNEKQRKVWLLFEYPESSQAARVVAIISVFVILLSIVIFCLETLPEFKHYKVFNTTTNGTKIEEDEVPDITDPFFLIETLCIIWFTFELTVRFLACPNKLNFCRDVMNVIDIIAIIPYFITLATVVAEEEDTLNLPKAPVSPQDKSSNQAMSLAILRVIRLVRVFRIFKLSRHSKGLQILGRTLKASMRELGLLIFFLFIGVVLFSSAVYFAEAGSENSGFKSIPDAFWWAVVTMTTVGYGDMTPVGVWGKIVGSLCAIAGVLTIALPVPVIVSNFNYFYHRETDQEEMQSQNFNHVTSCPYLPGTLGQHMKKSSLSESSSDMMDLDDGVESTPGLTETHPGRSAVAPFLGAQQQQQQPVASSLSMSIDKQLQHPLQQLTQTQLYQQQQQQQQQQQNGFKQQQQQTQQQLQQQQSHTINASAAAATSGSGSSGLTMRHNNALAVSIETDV

T1 sequence (Q09470 whole entry): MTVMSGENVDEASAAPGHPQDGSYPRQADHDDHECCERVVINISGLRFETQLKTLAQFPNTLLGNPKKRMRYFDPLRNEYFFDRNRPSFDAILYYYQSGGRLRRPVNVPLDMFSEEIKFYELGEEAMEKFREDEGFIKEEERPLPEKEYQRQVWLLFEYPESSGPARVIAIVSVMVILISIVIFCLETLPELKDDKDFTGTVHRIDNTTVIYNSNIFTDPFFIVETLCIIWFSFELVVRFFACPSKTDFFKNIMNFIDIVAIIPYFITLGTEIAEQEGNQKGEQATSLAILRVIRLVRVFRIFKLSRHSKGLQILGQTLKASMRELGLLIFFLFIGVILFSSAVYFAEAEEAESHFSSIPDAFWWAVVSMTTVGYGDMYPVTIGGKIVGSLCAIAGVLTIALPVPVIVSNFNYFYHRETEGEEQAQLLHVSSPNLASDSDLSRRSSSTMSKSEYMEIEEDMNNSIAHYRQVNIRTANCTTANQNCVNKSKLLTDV
T2 sequence (P22001 whole entry): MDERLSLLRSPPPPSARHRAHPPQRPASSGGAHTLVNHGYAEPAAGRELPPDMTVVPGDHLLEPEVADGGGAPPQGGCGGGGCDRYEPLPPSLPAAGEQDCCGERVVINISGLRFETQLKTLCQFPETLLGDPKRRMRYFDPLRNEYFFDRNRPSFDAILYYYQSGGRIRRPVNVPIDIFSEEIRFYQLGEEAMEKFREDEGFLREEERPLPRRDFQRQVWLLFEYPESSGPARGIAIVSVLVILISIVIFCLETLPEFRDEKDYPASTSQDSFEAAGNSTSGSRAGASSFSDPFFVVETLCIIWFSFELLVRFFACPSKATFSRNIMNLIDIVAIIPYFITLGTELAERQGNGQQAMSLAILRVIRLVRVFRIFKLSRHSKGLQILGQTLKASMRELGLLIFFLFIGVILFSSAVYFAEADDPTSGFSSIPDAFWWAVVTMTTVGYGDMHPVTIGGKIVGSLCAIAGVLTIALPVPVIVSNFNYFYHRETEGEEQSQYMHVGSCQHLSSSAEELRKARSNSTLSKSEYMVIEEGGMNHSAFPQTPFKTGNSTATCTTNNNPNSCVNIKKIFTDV
Sequence of Kv1.4 (P22459 whole entry): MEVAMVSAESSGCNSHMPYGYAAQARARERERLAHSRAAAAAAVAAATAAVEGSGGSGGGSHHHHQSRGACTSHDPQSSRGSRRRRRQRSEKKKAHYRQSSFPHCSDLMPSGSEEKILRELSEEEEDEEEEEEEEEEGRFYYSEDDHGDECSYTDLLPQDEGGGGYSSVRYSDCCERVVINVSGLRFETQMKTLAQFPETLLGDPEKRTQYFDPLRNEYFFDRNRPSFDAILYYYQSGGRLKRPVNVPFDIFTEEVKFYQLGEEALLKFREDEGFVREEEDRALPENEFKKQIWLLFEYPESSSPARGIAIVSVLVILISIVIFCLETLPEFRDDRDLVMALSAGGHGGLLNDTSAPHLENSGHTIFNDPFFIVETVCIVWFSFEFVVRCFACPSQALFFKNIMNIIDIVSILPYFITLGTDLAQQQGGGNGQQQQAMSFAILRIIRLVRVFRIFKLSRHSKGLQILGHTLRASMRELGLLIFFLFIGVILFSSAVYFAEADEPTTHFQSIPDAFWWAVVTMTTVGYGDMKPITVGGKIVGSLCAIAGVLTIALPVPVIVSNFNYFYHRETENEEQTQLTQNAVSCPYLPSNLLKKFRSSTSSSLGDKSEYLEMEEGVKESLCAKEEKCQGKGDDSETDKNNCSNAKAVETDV
Sequence of Shaker H4 potassium channel (P08510 whole entry): as the sequence (P08510 whole entry F425G) above, with G425F counted along it

CC[C@H](C)[C@@H]1NC(=O)[C@H](CCCNC(=N)N)NC(=O)[C@@H](N)CSSC[C@@H]2NC(=O)[C@@H]3CSSC[C@@H](C(=O)N[C@H](C(=O)O)C(C)C)NC(=O)[C@H](CCCCN)NC(=O)[C@H](CC(N)=O)NC(=O)[C@H](Cc4ccccc4)NC(=O)[C@H](CCCNC(=N)N)NC(=O)[C@H](CC(N)=O)NC(=O)[C@H](CSSC[C@H](NC(=O)[C@H](CCCCN)NC(=O)[C@H](CCC(N)=O)NC(=O)[C@H](CC(N)=O)NC(=O)[C@@H]4C[C@@H](O)CN4C1=O)C(=O)N[C@@H](Cc1ccccc1)C(=O)N[C@@H](CCC(N)=O)C(=O)N[C@@H](Cc1c[nH]cn1)C(=O)N[C@@H](CC(C)C)C(=O)N[C@@H](CC(=O)O)C(=O)N[C@@H](CC(=O)O)C(=O)N3)NC(=O)[C@H](CCCCN)NC(=O)[C@H](CCCNC(=N)N)NC(=O)[C@H](CO)NC2=O [κ-PVIIA, Cys-Xaa1-Ile-Xaa2-Asn-Gln-Xaa3-Cys-Xaa4-Gln-Xaa5-Leu-Asp-Asp-Cys-Cys-Ser-Xaa1-Xaa3-Cys-Asn-Xaa1-Xaa4-Asn-Xaa3-Cys-Val] (H-CRI[Hyp]NQKCFQHLDDCCSRKCNRFNKCV-OH; disulfide 1-16, 8-20, 15-26)
intracellular K+ concentration (PBFI fluorescence) [1]: reduction | current corrected for cell capacitance [2]: 2.4±0.7 pA/pf | current evoked by κ-PVIIA [2]: 26.2±6.2 pA | reversal of κ-PVIIA-induced inward current [2]: ~−20 mV | sensitivity of evoked currents to KATP antagonists [2]: sensitive | current corrected for cell capacitance [3]: 4.6±0.4 pA/pf | current evoked by κ-PVIIA [3]: 87.7±5.9 pA | experimentally determined Ek (reversal potential of evoked current) [3]: −23 mV | reversal of κ-PVIIA-induced inward current [3]: ~−20 mV | sensitivity of evoked currents to KATP antagonists [3]: sensitive | change in intracellular calcium (Fluo-3 fluorescence) [4]: −2.15±0.95% and −8.8±3.9% | protection against hypoxia-induced depolarization [5]: prevented any hypoxia-induced changes in membrane potential; also recorded: protective effect | protective effect against hypoxia induced depolarization (initial screen, Example 10) [5]: strong protective effect | effect on infarct size [6]: reduced the infarct size; also recorded: no effect | protection against hypoxia-induced changes in intracellular calcium [7]: able to provide protection against hypoxia | initial glutamate-induced depolarization [8]: prevents the initial glutamate-induced depolarization | effect on blood pressure [9]: no effect | effect on heart rate [9]: no effect | EC50 [10]: 0.0008 pM | EC50 [11]: 0.0009 pM | block of the Drosophila H4 shaker K+ channel [12]: block | degree of glutamate-induced excitotoxicity (delayed cellular death) [13]: effectively reduces the degree of glutamate-induced excitotoxicity in a dose-dependant manner | protection against delayed cytotoxic effects of glutamate [13]: very effective protection | protease activity (cytotoxicity) [14]: no detectable protease activity | hemodynamic effect [15]: without any hemodynamic effect | lowest effective dose [15]: 0.01 mg/kg | infarct size as % of risk zone, protection ([15]; iv): equally as protective | drop in blood pressure normally seen upon reperfusion [16]: prevented the drop in blood pressure | lowest effective dose [16]: 0.1 mg/kg | effect on infarct size ([16]; iv): No significant effect | reduction of infarct size ([16]; iv): approximately 60% | activity on Kv1.1 [17]: no effects; also recorded: no detectable activity | activity on Kv1.4 [18]: no detectable activity | effects on Kv1.3 [19]: no effects | effect of F425G Shaker mutation on κ-PVIIA sensitivity [20]: abolishes
